Drawing on patent US20240140957A1, “BRIDGED COMPOUNDS AS KRAS G12D INHIBITOR AND DEGRADER AND THE USE THEREOF” (BeiGene Switzerland GmbH, priority 2021, published 2024), this text covers IC50 for 17 compounds.

The structures appear in SMILES notation.

Assay [1] has as its system pERK1/2 (THR202/TYR204) in AsPC-1 cells. Kind of assay: pERK Assay (HTRF) in AsPC-1 cells. The format is cell-based. The note with it: Homo sapiens, ASPC1, 2 h compound treatment. The method, then: AsPC-1 cell line was used in this study. […] 30000 cells per well were seeded into a 96-well plate and incubated overnight. […] After 2 h compound treatment, cells were lysed, and the pERK1/2 (THR202/TYR204) level in the cell lysates was detected by HTRF kit (Cisbio). In brief, a total of 16 μL of cell lysate from each well of a 96-well plate was transferred to a 384-well white assay plate. Lysate from each well was incubated with 2 μL of Eu3+-cryptate (donor) labeled anti-phospho-ERK1/2 and 2 μL of D2 (acceptor) labeled anti-phospho-ERK1/2 antibodies (Cisbio) overnight in dark at room temperature. When donor and acceptor are in close proximity, excitation of the donor with laser triggers a Fluorescence Resonance Energy Transfer (FRET) towards the acceptor, which in turn fluoresces at 655 nm wavelength. FRET signals were measured using a PHERAstar FSX reader (BMG Labtech).
A general note: TR-FRET usually uses a lanthanide donor and a delayed reading to cut background.

The next assay has as its target KRAS G12D:SOS1 (Homo sapiens, UniProt P01116, G12D). Put plainly: KRAS G12D:SOS1 GDP TR-FRET assay. Type of assay: binding. Particulars: GST-KRAS G12D 37.5 nM, GDP 10 μM, His-SOS1 18 nM. The procedure: (§1) KRAS:SOS1 GDP TR-FRET Assay
(§2) This assay was used to identify compounds which competitively interact with the binding of KRAS protein to SOS1 in the presence of GDP. […] All protein and reaction solutions were prepared in assay buffer containing DPBS pH7.5, 0.1% BSA, and 0.05% Tween 20. Purified GST-tagged WT KRAS or KRAS G12D protein (37.5 nM final assay concentration) and GDP (Sigma, 10 μM final assay concentration) mixture, a serially diluted compound (top final concentration is 50 μM or 10 uM, 3-fold serially diluted, 10 points) and His-tagged SOS1 protein (18 nM final assay concentration) were added into the assay plates (384 well microplate, black, Corning) sequentially. Plates are incubated at 24° C. for 1 hr. Following the incubation, Mab Anti-GST-Tb cryptate (Cisbio) and […] (Cisbio) were added and further incubated at 24° C. for another 1 hr. The TR-FRET signals (ex337 nm, em665 nm/620 nm) were read on BMG PHERAstar FSX instrument. The inhibition percentage of KRAS protein binding with SOS1 in presence of increasing concentrations of compounds was calculated based on the ratio of fluorescence at 665 nm to that at 620 nm. The IC50 value of each compound was calculated from fitting the data to the four-parameter logistic model by Dotmatics.

The target in the next assay is WT KRAS:SOS1 (Homo sapiens, UniProt P01116). Put plainly: KRAS WT:SOS1 GDP TR-FRET assay. The note with it: GST-WT KRAS 37.5 nM, GDP 10 μM, His-SOS1 18 nM. Type of assay: binding. The procedure: as §1, §2
Chain of WT KRAS:SOS1 (P01116 1-188 isoform P01116-2): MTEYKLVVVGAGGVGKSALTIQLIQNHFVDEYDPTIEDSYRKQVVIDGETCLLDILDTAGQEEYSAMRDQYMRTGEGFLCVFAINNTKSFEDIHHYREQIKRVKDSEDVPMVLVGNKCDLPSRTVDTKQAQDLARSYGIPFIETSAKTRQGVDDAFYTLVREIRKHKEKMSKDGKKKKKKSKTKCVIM

As a reminder, the IC50 is the concentration needed to halve the response being measured. Low values mean inhibition by little substance, high ones a need for much substance.

Chain of KRAS G12D:SOS1 (P01116 1-188 isoform P01116-2 G12D): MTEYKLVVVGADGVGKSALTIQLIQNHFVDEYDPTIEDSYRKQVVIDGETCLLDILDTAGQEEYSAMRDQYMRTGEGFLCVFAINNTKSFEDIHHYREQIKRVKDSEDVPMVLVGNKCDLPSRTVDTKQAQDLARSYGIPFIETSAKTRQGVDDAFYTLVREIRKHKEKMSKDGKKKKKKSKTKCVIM

As for `CN(C)CCCOc1nc(N2CCNCC2)c2cc(Cl)c(-c3cc(O)cc4ccccc34)c(F)c2n1` [Example E1, 4-(6-chloro-2-(3-(dimethylamino)propoxy)-8-fluoro-4-(piperazin-1-)quinazolin-7-yl)naphthalen-2-ol], the IC50 in assay [1] was > 10000 nM; on KRAS G12D:SOS1, 1870 nM; against WT KRAS:SOS1, 26900 nM.

On to `CN(C)CCCOc1nc(N2CC3CC2CN3)c2cc(Cl)c(-c3ccc(F)c4sc(N)nc34)c(F)c2n1` (stereo not shown) [Example E3, 4-(4-(2,5-diazabicyclo[2.2.1]heptan-2-yl)-6-chloro-2-(3-(dimethylamino)propoxy)-8-fluoroquinazolin-7-yl)-7-fluorobenzo[d]thiazol-2-amine], for which the IC50 in assay [1] was > 10000 nM; against KRAS G12D:SOS1, 68 nM; against WT KRAS:SOS1, 3290 nM.

As to `CN(C)CCCOc1nc(N2CC3CCC2CN3)c2cc(Cl)c(-c3ccc(F)c4sc(N)nc34)c(F)c2n1` (stereo not shown) [Example E4, 4-(4-(2,5-diazabicyclo[2.2.2]octan-2-yl)-6-chloro-2-(3-(dimethylamino)propoxy)-8-fluoroquinazolin-7-yl)-7-fluorobenzo[d]thiazol-2-amine], the results for the IC50 (in assay [1]; against KRAS G12D:SOS1; against WT KRAS:SOS1) were > 10000 nM, 39 nM and 1100 nM, respectively.

In the case of `CC(CN1CCCCC1)Oc1nc(N2CC3CCC(C2)N3)c2cc(Cl)c(-c3ccc(F)c4sc(N)nc34)c(F)c2n1` (stereo not shown) [Example E5, 4-(4-(3,8-diazabicyclo [3.2.1]octan-3-yl)-6-chloro-8-fluoro-2-((1-(piperidin-1-yl)propan-2-yl)_oxy)quinazolin-7-yl)-7-fluorobenzo[d]thiazol-2-amine], the IC50 in assay [1] was 2870 nM; against KRAS G12D:SOS1, 20 nM; at WT KRAS:SOS1, 402 nM.

For the compound `CC(CN1CCCCC1)Oc1nc(N2CC3CC(C2)N3)c2cc(Cl)c(-c3ccc(F)c4sc(N)nc34)c(F)c2n1` (stereo not shown) [Example E6, 4-(4-(3,6-diazabicyclo[3.1.1]heptan-3-yl)-6-chloro-8-fluoro-2-((1-(piperidin-1-yl)propan-2-yl)oxy)quinazolin-7-yl)-7-fluorobenzo[d]thiazol-2-amine], the IC50 in assay [1] came to 7080 nM; against KRAS G12D:SOS1 it was 18 nM; against WT KRAS:SOS1, 1060 nM.

In the case of `Nc1nc2c(-c3c(Cl)cc4c(N5CC6CCC(C5)N6)nc(OCC56CCCN5CCC6)nc4c3F)ccc(F)c2s1` [Example E7, 4-(4-(3,8-diazabicyclo[3.2.1]octan-3-yl)-6-chloro-8-fluoro-2-((tetrahydro-1H-pyrrolizin-7a(5H)-yl)methoxy)quinazolin-7-yl)-7-fluorobenzo[d]thiazol-2-amine], the IC50 in assay [1] came to 2640 nM; against KRAS G12D:SOS1, 4.7 nM; at WT KRAS:SOS1, 11 nM.

Regarding `CC(CN1CCCCC1)Oc1nc(N2C3CCC2CNC3)c2cc(Cl)c(-c3ccc(F)c4sc(N)nc34)c(F)c2n1` (stereo not shown) [Example E8, 4-(4-(3,8-diazabicyclo[3.2.1]octan-8-yl)-6-chloro-8-fluoro-2-((1-(piperidin-1-yl)propan-2-yl)oxy)quinazolin-7-yl)-7-fluorobenzo[d]thiazol-2-amine], the IC50 in assay [1] is 1150 nM; at KRAS G12D:SOS1, 6.7 nM; on WT KRAS:SOS1, 50 nM.

For `CC(CN1CCCCC1)Oc1nc(N2C3CCC2C(N)C3)c2cc(Cl)c(-c3ccc(F)c4sc(N)nc34)c(F)c2n1` (stereo not shown) [Example E9, 4-(4-(2-amino-7-azabicyclo[2.2.1]heptan-7-yl)-6-chloro-8-fluoro-2-((1-(piperidin-1-yl)propan-2-yl)oxy)quinazolin-7-yl)-7-fluorobenzo[d]thiazol-2-amine], the IC50 worked out at 7690 nM in assay [1], 26 nM on KRAS G12D:SOS1 and 381 nM against WT KRAS:SOS1.

As to `CC(CN1C2CCC1CNC2)Oc1nc(N2CC3CCC(C2)N3)c2cc(Cl)c(-c3ccc(F)c4sc(N)nc34)c(F)c2n1` (stereo not shown) [Example E10, 4-(2-((1-(3,8-diazabicyclo[3.2.1]octan-8-yl)propan-2-yl)oxy)-4-(3,8-diazabicyclo[3.2.1]octan-3-yl)-6-chloro-8-fluoroquinazolin-7-yl)-7-fluorobenzo[d]thiazol-2-amine], the IC50 in assay [1] is > 10000 nM; against KRAS G12D:SOS1, 5.7 nM; against WT KRAS:SOS1, 387 nM.

Turning to `C[C@@H](CN1CCCCC1)Oc1nc(N2CC3CCC(C2)N3)c2cc(Cl)c(-c3ccc(F)c4sc(N)nc34)c(F)c2n1` [Example E11, 4-(4-(3,8-diazabicyclo[3.2.1]octan-3-yl)-6-chloro-8-fluoro-2-(((S)-1-(piperidin-1-yl)propan-2-yl)oxy)quinazolin-7-yl)-7-fluorobenzo[d]thiazol-2-amine], the IC50 in assay [1] worked out at 859 nM; against KRAS G12D:SOS1 it was 1.9 nM; on WT KRAS:SOS1, 30 nM.

Turning to `C[C@@H](CN1CCCCC1)Oc1nc(N2CC3CC(C2)N3)c2cc(Cl)c(-c3ccc(F)c4sc(N)nc34)c(F)c2n1` [Example E12], the IC50 was determined as 2020 nM in assay [1], 3.5 nM on KRAS G12D:SOS1 and 124 nM against WT KRAS:SOS1.

Consider `CC(CN1CCNCC1)Oc1nc(N2CC3CCC(C2)N3)c2cc(Cl)c(-c3ccc(F)c4sc(N)nc34)c(F)c2n1` (stereo not shown) [Example E13, 4-(4-(3,8-diazabicyclo[3.2.1]octan-3-yl)-6-chloro-8-fluoro-2-((1-(piperazin-1-yl)propan-2-yl)oxy)quinazolin-7-yl)-7-fluorobenzo[d]thiazol-2-amine], for which the results for the IC50 (in assay [1]; against KRAS G12D:SOS1; at WT KRAS:SOS1) were > 10000 nM, 8.3 nM and 537 nM, respectively.

Turning to `CO[C@@H]1C[C@@H](COc2nc(N3CC4CCC(C3)N4)c3cc(Cl)c(-c4ccc(F)c5sc(N)nc45)c(F)c3n2)N(C)C1` [Example E14, 4-(4-(3,8-diazabicyclo[3.2.1]octan-3-yl)-6-chloro-8-fluoro-2-(((2S,4R)-4-methoxy-1-methylpyrrolidin-2-yl)methoxy)quinazolin-7-yl)-7-fluorobenzo[d]thiazol-2-amine], the IC50 in assay [1] came out at 1160 nM; against KRAS G12D:SOS1, 5.3 nM; on WT KRAS:SOS1 it was 68 nM.

With `CN1C[C@H](F)C[C@H]1COc1nc(N2CC3CCC(C2)N3)c2cc(Cl)c(-c3ccc(F)c4sc(N)nc34)c(F)c2n1` [Example E15, 4-(4-(3,8-diazabicyclo[3.2.1]octan-3-yl)-6-chloro-8-fluoro-2-(((2S,4R)-4-fluoro-1-methylpyrrolidin-2-yl)methoxy)quinazolin-7-yl)-7-fluorobenzo[d]thiazol-2-amine], the IC50 in assay [1] is 574 nM; against KRAS G12D:SOS1 it was 4.4 nM; on WT KRAS:SOS1, 83 nM.

As for `CN1CCC[C@H]1COc1nc(N2CC3CCC(C2)N3)c2cc(Cl)c(-c3ccc(F)c4sc(N)nc34)c(F)c2n1` [Example E16, 4-(4-(3,8-diazabicyclo[3.2.1]octan-3-yl)-6-chloro-8-fluoro-2-(((S)-1-methylpyrrolidin-2-yl)methoxy)quinazolin-7-yl)-7-fluorobenzo[d]thiazol-2-amine], the IC50 is 1520 nM in assay [1], 2.8 nM on KRAS G12D:SOS1 and 27 nM at WT KRAS:SOS1.

As to `Nc1nc2c(-c3c(Cl)cc4c(N5CCNCC5)nc(OCCCN5CCN(CCCOCCC(=O)NCCOCCNC(=O)CCCC[C@@H]6SC[C@@H]7NC(=O)N[C@@H]76)CC5)nc4c3F)ccc(F)c2s1` [Example E56, N-(2-(2-(3-(3-(4-(3-((7-(2-amino-7-fluorobenzo[d]thiazol-4-yl)-6-chloro-8-fluoro-4-(piperazin-1-yl)quinazolin-2-yl)oxy)propyl)piperazin-1-yl)propoxy)propanamido)ethoxy)ethyl)-5-((3 aS, 4S,6aR)-2-oxohexahydro-1H-thieno[3,4-d]imidazol-4-yl)pentanamide], the half-inhibitory concentration (IC50) turned out to be 21 nM against KRAS G12D:SOS1 and 370 nM on WT KRAS:SOS1.

In the case of `CS(=O)(=O)N1CCN(c2nc(OC[C@@H]3CCCN3CCCOCCC(=O)NCCOCCNC(=O)CCCC[C@@H]3SC[C@@H]4NC(=O)N[C@@H]43)nc3c2CCN(c2cccc4cccc(Cl)c24)C3)C[C@@H]1CC#N` [Example E57, N-(2-(2-(3-(3-((S)-2-(((7-(8-chloronaphthalen-1-yl)-4-((S)-3-(cyanomethyl)-4-(methylsulfonyl)piperazin-1-yl)-5,6,7,8-tetrahydropyrido[3,4-d]pyrimidin-2-yl)oxy)methyl)pyrrolidin-1-yl)propoxy)propanamido)ethoxy)ethyl)-5-((3aS,4S,6aR)-2-oxohexahydro-1H-thieno[3,4-d]imidazol-4-yl)pentanamide], the IC50 is > 10000 nM against KRAS G12D:SOS1 and 130 nM at WT KRAS:SOS1.
